Patent US7172865B2, “Rapid and sensitive assay for the detection and quantification of coregulators of nucleic acid binding factors” (Saint Louis University, priority 2001, dated 2007)

What was measured:
[1] = tested on: LacR binding site split between LAC1/LAC4 and LAC2/LAC3; test: detection of Lac repressor protein by fluorescence quenching
Text: The LAC1 oligonucleotide (SEQ ID NO:12) was hybridized with the LAC4 oligonucleotide (SEQ ID NO:15) to generate the LAC1/LAC4 construct and the LAC2 oligonucleotide (SEQ ID NO:13) was hybridized with the LAC3 oligonucleotide (SEQ ID NO:14) to generate the LAC2/LAC3 construct.

LacR protein = LacR protein (Escherichia coli, UniProt P03023); test: IPTG biosensor; format: binding; details: 50 nM and 60 nM components, 2 hrs
Method: FIG. 24 describes a biosensor for detecting IPTG. Increasing concentrations of IPTG were added to a mixture containing 50 nM fluorescein-labeled LacR-specific first nucleic acid component and 60 nM dabcyl-labeled Lac-specific second nucleic acid component.
FIG. 24 illustrates a biosensor design using a nucleic acid binding factor for which the coregulator reduced its affinity for a specific nucleic acid element. In this case, the coregulator will induce the dissociation of the protein-nucleic acid complex and its detection could be accomplished by coregulator-dependent disappearance of protein-nucleic acid complex. […] In the absence of IPTG (a coregulator for LacR) the LacR protein bound to its labeled cognate nucleic acid element resulting in quenching of the fluorescence signal.

CAP protein = CAP protein (Escherichia coli, UniProt P0ACJ8); details: cited from earlier work
CAP protein, sequence (P0ACJ8 2-210): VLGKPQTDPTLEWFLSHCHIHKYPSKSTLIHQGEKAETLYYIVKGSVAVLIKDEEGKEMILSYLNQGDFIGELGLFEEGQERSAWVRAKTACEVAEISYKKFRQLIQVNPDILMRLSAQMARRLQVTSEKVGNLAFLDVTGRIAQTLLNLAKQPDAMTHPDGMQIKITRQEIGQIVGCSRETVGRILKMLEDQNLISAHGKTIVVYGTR

TrpR [2] = target: T1, TrpR (Escherichia coli, UniProt P0A881); test: tryptophan biosensor, fluorescence polarization; format: binding; details: 4 nM fluorescein-labeled 25 bp duplex
Method: Increasing concentrations of tryptophan were added to a mixture containing 4 nM fluorescein-labeled 25 bp DNA duplex containing consensus TrpR binding sites.
To illustrate that a different detection methodology for measuring the formation of nucleic acid-protein complexes could be accommodated to the biosensor design shown in FIG. 20, a biosensor for tryptophan was prepared wherein only one nucleic acid component was attached to a detectable label. According to this particular embodiment of the invention, fluorescence polarization of fluorochrome-labeled DNA component containing a TrpR cognate binding site was used to measure tryptophan-induced formation of a TrpR-nucleic acid complex (FIG. 23).

TrpR [3] = target: T1, TrpR; test: tryptophan biosensor, fluorescence intensity; format: binding; details: 250 nM and 300 nM components, 2 hrs
Method: Increasing concentrations of tryptophan were added to a mixture containing 250 nM fluorescein labeled TrpR-specific first nucleic acid component and 300 nM dabcyl-labeled Trp-specific second nucleic acid component.

[4] = tested on: TrpR binding site split between TRP1/TRP4 and TRP2/TRP3; details: 250 nM TRP1/TRP4 and 300 nM TRP2/TRP3, 4 mM tryptophan
Method: The TRP1 oligonucleotide (SEQ ID NO:16) was hybridized with the TRP4 oligonucleotide (SEQ ID NO:19) to generate the TRP1/TRP4 construct and the TRP2 oligonucleotide (SEQ ID NO:17) was hybridized with the TRP3 oligonucleotide (SEQ ID NO:18) to generate the TRP2/TRP3 construct. For the hybridization, the appropriate oligonucleotides were mixed at 10 μM concentration in 100 μl of 50 mM Tris/HCl (pH 8.0), 100 mM NaCl, 1 mM EDTA, heated for 1 min at 95° C. and then cooled to 25° C. for 1 hr. All subsequent fluorescence measurements were performed at 15° C. in 10 mM potassium phosphate (pH 7.6), 50 mM NaCl, 0.1 mM EDTA, 4mM tryptophan, 10% glycerol, 0.01% sodium azide and 1.0 mg/ml BSA. […] The duplexes contain a TrpR binding site (underlined sequence) split between each of the two double stranded constructs.
The fluorescence spectra of 250 nM TRP1/TRP4 and 300 nM TRP2/TRP3 were recorded in the absence of TrpR (FIG. 16A, curve 1) and in the presence of varying amounts of TrpR in a range from 0–800 nM (FIG. 16A, curves 2–5). ).

## CC(C)S[C@@H]1O[C@H](CO)[C@H](O)[C@H](O)[C@H]1O [IPTG, reference compound]
[1]; 5 mM IPTG
  effect on LacR nucleic acid binding activity: reduces its nucleic acid binding activity
LacR protein
  fluorescence signal response to IPTG: IPTG-dependent increase in fluorescence signal

## Nc1nc2c(ncn2[C@@H]2O[C@@H]3COP(=O)(O)O[C@H]3[C@H]2O)c(=O)[nH]1 [cGMP]
CAP protein; CAP alone
  affinity of CAP for the cyclic nucleotide: micromolar affinity
CAP protein
  change of affinity of CAP for the nucleotide in the presence of DNA containing a CAP binding site: remains unchanged

## N[C@@H](Cc1c[nH]c2ccccc12)C(=O)O [tryptophan]
TrpR [2]
  fluorescence polarization response to tryptophan: change of fluorescence polarization signal proportional to tryptophan concentration
TrpR [3]
  fluorescence signal response to tryptophan: large fluorescence signal change

B1: LacR: Lac repressor protein, nucleic acid binding reduced by IPTG (protein, UniProt P03023 1-360, looked up)
Lactose operon repressor: MKPVTLYDVAEYAGVSYQTVSRVVNQASHVSAKTREKVEAAMAELNYIPNRVAQQLAGKQSLLIGVATSSLALHAPSQIVAAIKSRADQLGASVVVSMVERSGVEACKAAVHNLLAQRVSGLIINYPLDDQDAIAVEAACTNVPALFLDVSDQTPINSIIFSHEDGTRLGVEHLVALGHQQIALLAGPLSSVSARLRLAGWHKYLTRNQIQPIAEREGDWSAMSGFQQTMQMLNEGIVPTAMLVANDQMALGAMRAITESGLRVGADISVVGYDDTEDSSCYIPPLTTIKQDFRLLGQTSVDRLLQLSQGQAVKGNQLLPVSLVKRKTTLAPNTQTASPRALADSLMQLARQVSRLESGQ
[1]; 50 nM LAC1/LAC4 plus LAC2/LAC3
  protein concentration at saturation of quenching: approximately 150 nM
[4]
  protein concentration at saturation of quenching: approximately 150 nM
